Read-outs that look alike come from different tables or passages of the source.
What was measured:
[1] = ABTS radical scavenging assay; format: biochemical; details: for IC50: 30-min incubation; for ABTS Assay TEAC50: Equivalent antioxidant capacity at Trolox 50 mM; for ABTS Assay TEAC100: Equivalent antioxidant capacity at Trolox 100 mM
Procedure: The mixture was stored in the dark at room temperature for 16 h. […] All the compounds tested were dissolved in EtOH. […] The degree of decolorization was calculated as the percentage reduction of absorbance. […] Trolox was used as a reference antioxidant.

SH-SY5Y cells = experiment: Cytotoxicity, MTT assay, SH-SY5Y; format: cell-based; details: Homo sapiens, read-out: SH-SY5Y IC50
Procedure: (§1) All compounds tested were dissolved and eventually further diluted in dimethylsulfoxide (DMSO). After overnight incubation, the cells were treated with different compound concentrations (5, 10, 20, 50, 100, 150, 200 µM) in a final volume of 200 µL with four replicates each. […] Cell proliferation or viability was measured using the 3-(4,5-dimethylthiazol-2-yl)-2,5-diphenyl tetrazolium bromide (MTT) assay. The MTT assay was optimized taking into account the number of cells plated per well, to work in the linear part of the cell density vs. MTT absorbance calibration curve, which allows achieving a maximum absorbance in the range of 0.8–1.0 in each well at the end of the experiment. In addition to that, the number of cells seeded for each experiment was optimized in agreement with the time scale of the experiment.
(§2) After cell treatment, 20 µL of MTT (5 mg/mL) was added to each well, and the plate was incubated at 37 °C in the dark for 2 h. Supernatants were removed, and the formazan crystals were solubilized in DMSO (200 µL/well), under 10 min shaking at room temperature. The reduction of MTT was quantified by absorbance at 570 nm in a Varioskan microplate reader (Thermo Fisher Scientific, Vantaa, Finland). Effects of the test compounds on cell viability were calculated using cells treated with a vehicle as a control. For IC50 and LD50 calculations, the data were subjected to linear regression analysis, and the regression lines were plotted for the best fit. The IC50 (inhibition of cell viability) concentrations were calculated using the respective dose–response curves.

[2] = Kinetic solubility by UV spectrometry; format: physicochemical; details: PBS 50 mM, aqueous buffer, kinetic from dmso stock
Procedure: A modified protocol was used from that described by Hoelke et al. for the determination of the kinetic solubility from DMSO compound solutions. A compound calibration curve (compound concentration vs UV absorption) was prepared for each compound with concentrations of 10, 20, 50, 100, and 200 µM. Each compound dilution was carried out by pipetting defined volumes of a 20 mM stock compound solution in DMSO into vials and adding PBS 50 mM to reach a final volume of 1 mL/well. The final amount of DMSO per well was 2%. For the lower compound concentrations, an additional volume of DMSO was added to each well to reach 2% DMSO. Then, 200 µL of each dilution was transferred to a new 96-well culture plate for the measurement of the UV-spectra. One well in each row was left without a compound as a blank, and its UV absorbance was used as an offset correction. The experiments were performed in duplicate.
In parallel, compound saturation solutions were reached and filtered from 20 mM compound stock in DMSO: 10 µL of a 20 mM stock solution was dispensed into 190 µL of PBS 10 mM. The solutions were mixed, shaken on a microplate shaker for two hours, and then 160 µL of each solution was filtered and transferred to a new well plate for UV absorption measurement.
Measurement of the UV-spectra was performed using a Varioskan microplate reader, and spectra were taken in the range of 270–600 nm. Spectral bandwidth was set to 5 nm, and the data pint interval was 10 nm. The experiments were carried out in triplicate.

HepG2 cells = experiment: Cytotoxicity, MTT assay, HepG2; format: cell-based; details: Homo sapiens
Procedure: as §1, §2

[3] = Ferric reducing antioxidant power (FRAP) assay; format: biochemical; parameters: FRAP Assay Trolox Equivalents: unit not given here; details: for FRAP Assay Antioxidant Capacity (%) at 100 uM: compound at 100 uM; for FRAP Assay Antioxidant Capacity (%) at 200 uM: compound at 200 uM
Procedure: FRAP reagent was prepared by mixing 10 mL of 300 mM acetate buffer with 1 mL of 10 mM 2,4,6-tripyridyl-S-triazine (TPTZ) in HCl 40 mM and 1mL of FeCl3·6H2O 20 mM. […] Trolox was used as assay control.

[4] = HepG2, MTT, cytotoxicity, read-out: HepG2 IC50

SMILES	IC50 [1] [µM]	solubility [2] [µM]	melting point [°C]	ABTS Assay TEAC50 [1]	ABTS Assay TEAC100 [1]	IC50 (SH-SY5Y cells; MTT, cytotoxicity) [µM]	IC50 (HepG2 cells; [4]) [µM]	FRAP Assay Trolox Equivalents [3]	FRAP Assay Antioxidant Capacity (%) at 100 uM [3] [%]	FRAP Assay Antioxidant Capacity (%) at 200 uM [3] [%]	IC50 (SH-SY5Y cells) [µM]	IC50 (HepG2 cells; HepG2, read-out: HepG2 IC50) [µM]
CC1=Nc2c(F)c(F)c(F)c(F)c2NC(=O)C1 [Compound 1, 6,7,8,9-Tetrafluoro-4-methyl-1H-1,5-benzodiazepin-2(3H)-one]	576 ± 40	> 200	155.2	0.33	0.16	> 250	> 250	0.01	0.5	0.5	–	–
CN1C(=O)CC(c2ccccc2)=Nc2c(F)c(F)c(F)c(F)c21 [Compound 4, 6,7,8,9-tetrafluoro-4-phenyl-1-methyl-1H-1,5-benzodiazepin-2(3H)-one]	> 1000	–	133.7	–	–	> 250	> 250	0.02	1.1	1.3	–	–
CN1C(=O)CC(c2ccccc2F)=Nc2c(F)c(F)c(F)c(F)c21 [Compound 6, 6,7,8,9-tetrafluoro-4-(2-fluorophenyl)-1-methyl-1H-1,5-benzodiazepin-2(3H)-one]	> 1000	< 200	142.6	–	–	–	–	0.02	1.1	1.6	> 250	> 250
O=C1CC(c2ccccc2Cl)=Nc2c(F)c(F)c(F)c(F)c2N1 [Compound 7, 6,7,8,9-tetrafluoro-4-(2-chlorophenyl)-1H-1,5-benzodiazepin-2(3H)-one]	635 ± 87	< 50	211.7	0.35	0.16	135 ± 11.2	201 ± 13.1	0.01	0.6	0.4	–	–
CN1C(=O)CC(c2ccccc2Cl)=Nc2c(F)c(F)c(F)c(F)c21 [Compound 8, 6,7,8,9-tetrafluoro-4-(2-chlorophenyl)-1-methyl-1H-1,5-benzodiazepin-2(3H)-one]	> 1000	< 100	128.7	–	–	–	–	0.01	0.6	0.2	150 ± 17	207 ± 27
CN1C(=O)CC(c2ccccc2)=Nc2ccc(F)cc21 [Compound 12, 8-Fluoro-1-methyl-4-phenyl-1H-1,5-benzodiazepin-2(3H)-one]	> 1000	> 200	–	–	–	–	–	0.02	0.8	1.4	240 ± 24.9	230 ± 25.5
CN1C(=O)CC(c2ccccc2)=Nc2cc(F)ccc21 [Compound 14, 7-Fluoro-1-methyl-4-phenyl-1H-1,5-benzodiazepin-2(3H)-one]	> 1000	> 200	107.7	–	–	–	–	0.01	0.3	0.6	220 ± 27.9	233 ± 18.7
O=C1CC(c2ccccc2)=Nc2cc(F)cc(F)c2N1 [Compound 15, 7,9-Difluoro-4-phenyl-1H-1,5-benzodiazepin-2(3H)-one]	496 ± 82	< 10	–	0.34	0.15	> 250	> 250	0.07	3.8	6.2	–	–
O=C1CC(c2ccccc2)=Nc2c(F)cc(F)cc2N1 [Compound 17, 6,8-Difluoro-4-phenyl-1H-1,5-benzodiazepin-2(3H)-one]	> 1000	< 50	221.5	–	–	> 250	> 250	0.04	1.8	2.5	–	–
CN1C(=O)CC(c2ccccc2)=Nc2ccccc21 [Compound 19, 1-Methyl-4-phenyl-1H-1,5-benzodiazepin-2(3H)-one]	> 1000	> 200	–	–	–	–	–	0.03	1.7	3.5	201 ± 27	> 250
COc1cc(C2=Nc3cc(Cl)c(Cl)cc3NC(=O)C2)cc(OC)c1OC [Compound 23, 7,8-Dichloro-4-(3,4,5-trimethoxyphenyl)-1H-1,5-benzodiazepin-2(3H)-one]	> 500	< 20	246	–	–	> 250	–	0.03	2.7	4.6	–	–
Cc1c(C)c2c(c(C)c1O)CCC(C)(C(=O)O)O2 (stereo not shown) [Trolox, reference compound]	25.1 ± 1.2	–	–	1	1	–	–	1	51.3	100	–	–

Further lines, with some results ahead:

IC50 [1] [µM]	solubility [2] [µM]	melting point [°C]	SMILES	ABTS Assay TEAC50 [1]	ABTS Assay TEAC100 [1]	IC50 (SH-SY5Y cells; MTT, cytotoxicity) [µM]	IC50 (HepG2 cells; [4]) [µM]	FRAP Assay Trolox Equivalents [3]	FRAP Assay Antioxidant Capacity (%) at 100 uM [3] [%]	FRAP Assay Antioxidant Capacity (%) at 200 uM [3] [%]	IC50 (SH-SY5Y cells) [µM]	IC50 (HepG2 cells; HepG2, read-out: HepG2 IC50) [µM]
> 1000	> 200	132.2	CC1=Nc2c(F)c(F)c(F)c(F)c2N(C)C(=O)C1 [Compound 2, 6,7,8,9-tetrafluoro-1,4-dimethyl-1H-1,5-benzodiazepin-2(3H)-one]	–	–	> 250	> 250	0.02	1.00	0.5	–	–
> 1000	< 100	253.3	O=C1CC(c2ccccc2)=Nc2c(F)c(F)c(F)c(F)c2N1 [Compound 3, 6,7,8,9-tetrafluoro-4-phenyl-1H-1,5-benzodiazepin-2(3H)-one]	–	–	> 250	> 250	0.03	1.5	1.8	–	–
658 ± 96	< 20	248.1	O=C1CC(c2ccccc2F)=Nc2c(F)c(F)c(F)c(F)c2N1 [Compound 5, 6,7,8,9-tetrafluoro-4-(2-fluorophenyl)-1H-1,5-benzodiazepin-2(3H)-one]	0.32	0.15	> 250	> 250	0.03	1.4	5.5	–	–
> 1000	> 200	115.8	CN1C(=O)CC(c2ccccc2)=Nc2cc(F)c(F)cc21 [Compound 10, 7,8-Difluoro-1-methyl-4-phenyl-1H-1,5-benzodiazepin-2(3H)-one]	–	–	193 ± 15.9	> 250	0.01	0.3	0.6	–	–
> 1000	> 200	–	CN1C(=O)CC(c2ccccc2)=Nc2cc(F)cc(F)c21 [Compound 16, 7,9-Difluoro-1-methyl-4-phenyl-1H-1,5-benzodiazepin-2(3H)-one]	–	–	> 250	> 250	0.00	0	0	–	–

Reference: paper PMC8533176, “1,5-Benzodiazepin-2(3H)-ones: In Vitro Evaluation as Antiparkinsonian Agents” (Antioxidants, 2021)
